# Experimental data: paper PMC10482942, “Novel quinazoline-1,2,3-triazole hybrids with anticancer and MET kinase targeting properties” (Scientific Reports, 2023)
# Assays:
# [1] = test system: AsPC-1 cells; assay: SRB antiproliferative assay, monolayer culture; type: cell-based, human; conditions: mean ± S.E.M.
# Method: (§1) EBC-1 (human lung […] cells with MET gene amplification) and Mia-Paca-2 (human PDAC cells) were obtained from Japanese Collection of Research Bio Resources Cell Bank (JCRB). AsPC-1 (human PDAC), MKN-45 (human gastric adenocarcinoma cells with MET gene amplification), HT-29 (human colorectal adenocarcinoma), and K562 cells (human chronic myelogenous leukemia) were obtained from the Iranian Biological Resource Centre, Tehran, Iran. AsPC-1, EBC-1, MKN-45, and K562 cells were cultured in RPMI 1640 medium containing 10% heat-inactivated fetal bovine serum (FBS) and 1% penicillin/streptomycin. Mia-Paca-2 and HT-29 cells were grown in DMEM low glucose, containing 10% and 20% heat-inactivated FBS, resoectively and 100 U/ml penicillin/streptomycin. All cells were grown in monolayer cultures at 37 °C in a humidified incubator with 5% CO2.
# (§2) Antiproliferative effects of synthetic compounds were evaluated by the SRB assay as described previously. Cancer cells were trypsinized, homogenous cell suspensions were prepared and 100 µl of cell suspensions were cultured at the densities of 5 × 10^4 cells/ml (for AsPC-1 and Mia-Paca-2), 4 × 10^4 cells/m (for EBC-1 and MKN-45), 3 × 10^4 cells/ml (for K562) and 1 × 10^4 cells/ml (for HT-29) in 96-well flat-bottom plates. After 24 h of incubation to allow cells to attach and resume optimal growth, the synthetic compounds dissolved in DMSO and diluted in the growth medium were added. One hundred µl of synthesized derivatives were added at different concentrations in triplicate and incubated for an additional 72 h at 37 °C. The cells were then fixed by gentle addition of 50 μl cold trichloroacetic acid (TCA) 50% (w/v, 10% final concentration) and incubated for 60 min at 4 °C. Then, the supernatant was discarded, and the plates were washed four times with distilled water and air dried. Afterwards, 100 μl of SRB solution 0.04% (w/v) dissolved in 1% acetic acid was added to each well, and plates were incubated for 15 min at room temperature. At the next step, the unbound dye was removed by washing four times with 1% acetic acid and the plates were air dried. The bound stain was finally solubilized with 150 μl of 10 mM Tris base solution, and the absorbance was recorded at a wavelength of 540 nm with a Bio-Tek microplate reader (Model Synergy HTX).
# [2] = test system: EBC-1 cells; assay: SRB antiproliferative assay, monolayer culture; type: cell-based, human; conditions: mean ± S.E.M.
# Method: as §1, §2
# [3] = test system: HT-29 cells; assay: SRB antiproliferative assay, monolayer culture; type: cell-based, human; conditions: mean ± S.E.M.
# Method: as §1, §2
# [4] = test system: K562 cells; assay: SRB antiproliferative assay, monolayer culture; type: cell-based, human; conditions: mean ± S.E.M.
# Method: as §1, §2
# [5] = test system: MKN-45 cells; assay: SRB antiproliferative assay, monolayer culture; type: cell-based, human; conditions: mean ± S.E.M.
# Method: as §1, §2
# [6] = test system: Mia-Paca-2 cells; assay: SRB antiproliferative assay, monolayer culture; type: cell-based, human; conditions: mean ± S.E.M.
# Method: as §1, §2
SMILES,"IC50 ([1]; Homo sapiens, ASPC1, 72 h)","IC50 ([3]; Homo sapiens, HT-29, 72 h)","IC50 ([4]; Homo sapiens, K562, 72 h)","IC50 ([5]; Homo sapiens, MKN-45, 72 h)","IC50 ([6]; Homo sapiens, MIA PaCa-2, 72 h)",melting point,"IC50 ([2]; Homo sapiens, EBC-1, 72 h)",IC50 ([1]; 72 h),IC50 ([2]; 72 h),IC50 ([3]; 72 h),IC50 ([4]; 72 h),IC50 ([5]; 72 h),IC50 ([6]; 72 h)
"Clc1ccc(Cn2cc(COc3ccc(C=NNc4ncnc5ccccc45)cc3)nn2)cc1Cl [Compound 8d, 2-(4-((1-(3,4-Dichlorobenzyl)-1H-1,2,3-triazol-4-yl)methoxy)benzylidene)-1-(quinazolin-4-yl)hydrazine]",> 100 µM,93.4 ± 2.2 µM,> 100 µM,83.6 ± 6 µM,> 100 µM,224.6 °C,> 100 µM,–,–,–,–,–,–
"COc1cc2nccc(Oc3ccc(NC(=O)C4(C(=O)Nc5ccc(F)cc5)CC4)cc3)c2cc1OC [Cabozantinib, reference compound]",1.4 ± 0.1 µM,3.7 ± 0.67 µM,4 ± 1 µM,1.04 ± 0.06 µM,3.8 ± 0.6 µM,–,0.059 ± 0.014 µM,–,–,–,–,–,–
O=C1c2ccccc2C(=O)N1CCCn1cc(COc2ccccc2C=NNc2ncnc3ccccc23)nn1 [Compound 8i],–,–,–,–,–,–,–,> 100 µM,89.4 ± 4.3 µM,> 100 µM,86.2 ± 3 µM,> 100 µM,> 100 µM
"C[C@@H](Oc1cc(-c2cnn(C3CCNCC3)c2)cnc1N)c1c(Cl)ccc(F)c1Cl [Crizotinib, reference compound]",2.45 ± 1.3 µM,–,–,0.05 ± 0.003 µM,2.36 ± 1.2 µM,–,0.006 ± 0.001 µM,–,–,–,–,–,–
"C(=NNc1ncnc2ccccc12)c1ccc(OCc2cn(Cc3ccccc3)nn2)cc1 [Compound 8g, 2-(4-((1-Benzyl-1H-1,2,3-triazol-4-yl)methoxy)benzylidene)-1-(quinazolin-4-yl)hydrazine]",> 100 µM,> 100 µM,96.6 ± 1.1 µM,67.7 ± 4.6 µM,> 100 µM,218.6 °C,> 100 µM,–,–,–,–,–,–
"O=[N+]([O-])c1ccc(Cn2cc(COc3ccc(C=NNc4ncnc5ccccc45)cc3)nn2)cc1 [Compound 8f, 2-(4-((1-(4-Nitrobenzyl)-1H-1,2,3-triazol-4-yl)methoxy)benzylidene)-1-(quinazolin-4-yl)hydrazine]",> 100 µM,> 100 µM,> 100 µM,56.6 ± 6.5 µM,> 100 µM,208.4 °C,> 100 µM,–,–,–,–,–,–

# The next lines start with results.
"IC50 ([1]; Homo sapiens, ASPC1, 72 h)","IC50 ([3]; Homo sapiens, HT-29, 72 h)","IC50 ([4]; Homo sapiens, K562, 72 h)","IC50 ([5]; Homo sapiens, MKN-45, 72 h)","IC50 ([6]; Homo sapiens, MIA PaCa-2, 72 h)",melting point,SMILES,"IC50 ([2]; Homo sapiens, EBC-1, 72 h)",IC50 ([1]; 72 h),IC50 ([2]; 72 h),IC50 ([3]; 72 h),IC50 ([4]; 72 h),IC50 ([5]; 72 h),IC50 ([6]; 72 h)
> 100 µM,> 100 µM,61.5 ± 21.6 µM,> 100 µM,> 100 µM,–,"Clc1ccc(Cn2cc(COc3ccc(C=NNc4ncnc5ccccc45)cc3)nn2)cc1 [Compound 8e, 2-(4-((1-(4-Chlorobenzyl)-1H-1,2,3-triazol-4-yl)methoxy)benzylidene)-1-(quinazolin-4-yl)hydrazine]",> 100 µM,–,–,–,–,–,–
> 100 µM,> 100 µM,57.4 ± 21.9 µM,> 100 µM,> 100 µM,207.3 °C,"Brc1ccc(Cn2cc(COc3ccc(C=NNc4ncnc5ccccc45)cc3)nn2)cc1 [Compound 8a, 2-(4-((1-(4-Bromobenzyl)-1H-1,2,3-triazol-4-yl)methoxy)benzylidene)-1-(quinazolin-4-yl)hydrazine]",> 100 µM,–,–,–,–,–,–
> 100 µM,> 100 µM,> 100 µM,> 100 µM,> 100 µM,204.9 °C,"Fc1ccc(Cn2cc(COc3ccc(C=NNc4ncnc5ccccc45)cc3)nn2)cc1 [Compound 8b, 2-(4-((1-(4-Fluorobenzyl)-1H-1,2,3-triazol-4-yl)methoxy)benzylidene)-1-(quinazolin-4-yl)hydrazine]",> 100 µM,–,–,–,–,–,–
